The values below come from ChEMBL document CHEMBL4834465, “Potent SARS-CoV-2 mRNA Cap Methyltransferase Inhibitors by Bioisosteric Replacement of Methionine in SAM Cosubstrate” (ACS Med Chem Lett, 2021).

A value given as a limit tells only on which side of the number the result lay.

In data set [1] the target is T1, Glycine N-methyltransferase (Homo sapiens, UniProt Q14749).
T1 sequence (Q14749 whole entry): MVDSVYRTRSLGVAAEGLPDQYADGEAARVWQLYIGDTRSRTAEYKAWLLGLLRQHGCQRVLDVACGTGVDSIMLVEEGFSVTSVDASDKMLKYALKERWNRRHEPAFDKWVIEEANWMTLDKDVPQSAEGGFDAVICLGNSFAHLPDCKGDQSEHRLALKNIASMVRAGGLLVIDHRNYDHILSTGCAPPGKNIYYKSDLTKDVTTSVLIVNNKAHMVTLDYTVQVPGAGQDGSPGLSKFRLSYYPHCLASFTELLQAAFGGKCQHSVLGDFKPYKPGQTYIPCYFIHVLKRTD
The data set is described as follows: Inhibition of N-terminal His-tagged human recombinant Glycine-N-methyltransferase (1 to 295 residues) expressed in Escherichia coli using glycine and SAM as substrate incubated for 30 mins by HTRF assay. On the technique in general: In TR-FRET formats the signal depends on donor and acceptor labels being close together.

The conditions of data set [2]: mouse, balb/3t3 clone a31, 48 h.
The next data set concerns HepG2. Conditions: human, hepg2, 48 h; call rule not given here.
The test system of another data set is A549. The note with it: human, a549, 48 h.

Usually IC50 stands for the concentration that inhibits the measured activity by half. Take `Nc1ncnc2c1ncn2[C@@H]1O[C@H](CSCCc2c[nH]nn2)[C@@H](O)[C@H]1O`: the IC50 in data set [1] (read-out: IC50) was 0.39 µM. The CC50 in data set [2] was over 200 µM; in the data set on HepG2, over 100 µM; in the data set on A549, over 200 µM.

As for `Nc1ncnc2c1ncn2[C@@H]1O[C@H](C(=O)N2CCN(CC(=O)O)CC2)[C@@H](O)[C@H]1O`, the concentration for half-maximal inhibition (IC50) in data set [1] (read-out: IC50) turned out to be 240 µM.

On to `Nc1ncnc2c1ncn2[C@@H]1O[C@H](CNCc2cc[nH]n2)[C@@H](O)[C@H]1O`, for which the IC50 entry in data set [1] is “Not Active”.

As for `Nc1ncnc2c1ncn2[C@@H]1O[C@H](C[C@@H](N)CC[C@H](N)C(=O)O)[C@@H](O)[C@H]1O` [SINEFUNGIN], the CC50 was 99.2 µM in data set [2], over 100 µM with HepG2 and 72.9 µM in the data set on A549.

Consider `Nc1ncnc2c1ncn2[C@@H]1O[C@H](CSCc2cc(O)[nH]n2)[C@@H](O)[C@H]1O`, for which the IC50 in data set [1] (read-out: IC50) came to 0.64 µM. The CC50 was over 200 µM in data set [2], over 100 µM with HepG2 and over 200 µM with A549.

With `Nc1ncnc2c1ncn2[C@@H]1O[C@H](CNCCc2ccccc2)[C@@H](O)[C@H]1O`, the IC50 in data set [1] (read-out: IC50) was 207 µM.

Turning to `Nc1ncnc2c1ncn2[C@@H]1O[C@H](CSCc2cccc(C(=O)O)c2)[C@@H](O)[C@H]1O`, in data set [1] (read-out: IC50), the half-inhibitory concentration (IC50) came to 0.0086 µM. The CC50 is over 200 µM in data set [2], over 100 µM in the data set with HepG2 and over 200 µM with A549.

On to `Nc1ncnc2c1ncn2[C@@H]1O[C@H](C(=O)Nc2cccc(C(=O)O)c2)[C@@H](O)[C@H]1O`, for which the half-maximal inhibitory concentration (IC50) in data set [1] (read-out: IC50) turned out to be 2.2 µM. Further, the CC50 is over 200 µM in data set [2], over 100 µM with HepG2 and over 200 µM with A549.

As to `Nc1ncnc2c1ncn2[C@@H]1O[C@H](CSCc2ccc3ccccc3c2)[C@@H](O)[C@H]1O`, the 50% inhibitory concentration (IC50) in data set [1] (read-out: IC50) came out at 0.26 µM. The CC50 in data set [2] was over 200 µM; in the data set with HepG2, over 100 µM; with A549, over 200 µM.

Consider `Nc1ncnc2c1ncn2[C@@H]1O[C@H](CSc2cccc(C(=O)O)c2)[C@@H](O)[C@H]1O`, for which the IC50 in data set [1] (read-out: IC50) was 0.15 µM. Further, the CC50 in data set [2] is over 200 µM; with HepG2, over 100 µM; with A549, over 200 µM.

As to `Nc1ncnc2c1ncn2[C@@H]1O[C@H](CN(CCCC(=O)O)CCc2ccccc2)[C@@H](O)[C@H]1O`, the 50% inhibitory concentration (IC50) in data set [1] (read-out: IC50) stood at 2.7 µM. The CC50 was over 200 µM in data set [2], over 100 µM in the data set on HepG2 and over 200 µM in the data set with A549.
